# Assays:
# MDA-MB-231 [1] = test: Seahorse XF96 mitochondria stress test (OCR), MDA-MB-231; type: cell-based
# Excerpt: With the previous biological data pointing towards metabolic changes, we sought to explore further the effect 2a had on redox metabolism. The ETC is a complicated biological system that is constantly changing in response to external stress in order to achieve redox homeostasis within the cell. With the DEG data alluding to involvement of ETC genes (Fig. 9A), we then decided to look in depth at the effect of complexes on these biological parameters. We next performed oxygen consumption rate (OCR) experiments by Seahorse 96XF to quantify the effect of 2a on mitochondrial bioenergetics or stress (MitoStress) (Fig. 9B and C).[87] A series of known inhibitors of the various parts of the ETC that allow for the measurement of specific parameters were used. […] ATP linked respiration was also calculated and found to be decreased by more than 80% at 3 μM treatment (Fig. 9F). […]
# (§1) For the wells that were pre-treated with NAC, a stock solution of NAC in DMEM was added at a concentration of 10 mM for 2 h prior to the addition of 2a. […] The cells were then analyzed using FACS with the FITC channel […]
# (§2) Mitochondrial Metabolism Analysis with Seahorse XF96 Analysis. […] The optimum conditions were determined to be 30,000 cells/well and an FCCP injection concentration of 0.6 µM. […]
# MDA-MB-231 [2] = test: Intracellular ROS analysis with DCF-DA (FACS); type: cell-based; details: for Increase in ROS versus DMSO: 1 hour, DCF-DA
# Excerpt: We examined the status of intracellular ROS induced by 2a. For this experiment, we employed the used 2′,7′-dichlorofluoresceindiacetate (DCF-DA),[103] a fluorogenic dye with an excitation/emission wavelength of 495/525 nm. DCF-DA enters into the cell and is subsequently deacetylated by cellular esterases where it is then oxidized by ROS to produce a fluorescent compound that can detected with flow cytometry (FACS) using the FITC channel.[104]
# To quantify the amount of ROS produced, we subjected MDA-MB-231 cells to 2a at 10 and 20 μM to assess concentration dependence. Within 1 hour of treatment, we observed a 1.3× increase in ROS in cells treated with 2aversus DMSO (Fig. 11). At twice the concentration, 20 μM, we observed a 1.5× increase in ROS. […] When compared to the H2O2 control, 2a produces similar ROS levels in MDA-MB-231 cells (Fig. 11). […] To further solidify that the DCF-DA fluorescence is from ROS and not other reactive species such as RNS, we pre-treated cells with 10 mM N-acetyl cysteine for 2 h. NAC is a natural ROS scavenger and a key component in the formation of glutathione (GSH), which is a powerful antioxidant.[105,106] After pre-treatment, the cells were subjected to the same concentration of 2a (10 μM) for 1 h.
# 100 µL of dye into 900 µL of DMEM. Note: the working solution of JC-1 should always be prepared fresh and not stored for long-term use. Then, 100 µL/mL of DMEM were added to the cells and incubated at 37 °C for 20 minutes. Prior to imaging, the media was removed and replaced with room temperature PBS (2 mL). The cells were then visualized using confocal microscopy on a Nikon A1R Inverted Confocal Microscope. […]
# as §1, §2
smiles,measurement,setting,value
C[N+](C)=C1[S][Au-2]2([S]1)[c]1ccccc1Cc1cccc[n+]12.F[P-](F)(F)(F)(F)F (centres unmarked) [2a],Decrease of maximal OCR,"MDA-MB-231 [1]; MDA-MB-231, 1 μM, within 50 minutes, compared to control",more than 25%
same,Decrease of basal OCR,"MDA-MB-231 [1]; MDA-MB-231, 3 μM, 17 minutes from injection",more than 20%
same,Increase in ROS versus DMSO,"MDA-MB-231 [2]; MDA-MB-231, 10 μM",1.3 ×
same,Increase in ROS versus DMSO,"MDA-MB-231 [2]; MDA-MB-231, 20 μM",1.5 ×
same,ROS levels after NAC pre-treatment,"MDA-MB-231 [2]; MDA-MB-231, 10 mM NAC 2 h, then 10 μM for 1 h",no increase in ROS levels

# Source: PMC8162438, “Cancer cell-selective modulation of mitochondrial respiration and metabolism by potent organogold(III) dithiocarbamates” (Chemical Science, 2020)
